In article PMC10447463, “Data-mining unveils structure–property–activity correlation of viral infectivity enhancing self-assembling peptides” (Nature Communications, 2023):
Values joined by “and” are separate entries in the source; they are usually repeats but may differ in a detail not shown here. Equal values may be shown once. Read-outs that look alike come from different tables or passages of the source.

Experiments:
[1] = assay type: physicochemical
Procedure, shortened: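 Preformed peptide fibrils (1 mg/mL) mixed with 50 µM ThT in PBS, 15 min at RT, fluorescence ex 440/em 488 nm versus PBS blank, triplicates. Zeta potential: peptides at 1 mg/mL in PBS pH 7.4, aged 1 d at RT, diluted in 1 mM KCl, Smoluchowski from electrophoretic mobility.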

[2] = tested on: HIV-1 infection of TZM-bl cells; test: HIV-1 infectivity enhancement assay, β-galactosidase luminescence; assay type: cell-based; details: for Rel-to EFC / n-fold to virus: Fig S8 panels B, D; for Log10 Infection Rel EF-C: HIV-1 infection of TZM-bl cells
[3] = β-sheet content by ATR-FT-IR; assay type: physicochemical
Procedure, shortened: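 Measurements on freeze-dried PNF powders used a diamond ATR element, 64 scans each, with β-sheet fraction derived as previously reported. CR reflects loss of fluorescamine-reactive monomer after 3 kDa ultrafiltration, averaged over triplicates.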

[4] = assay type: physicochemical; design: key to Fibril / Fibril Formation / TEM 2cat / Fibril: 1 = fibrils present; 0 non-fibrillar structures; details: for Fibril: 1 = fibrils present
[5] = relative to blank 42.1851851851852 a.u.
[6] = Feb2021, 1.3 µM value relative to virus only (0 µM)
[7] = Feb2021, log10 of infectivity relative to EF-C
[8] = Feb2021, n-fold infectivity relative to EF-C
[9] = Feb2021, unrounded values of the 1.3 µM column
[10] = infectivity class (low / medium / high) of each library peptide, main list in c1-c6, same classes repeated in sub-lists of sequences containing the hydrophobicity/charge patterns P+,H0,P+,H0,P0,H0,P0, P+,H0,P0,H0,P0,H0,P0, P+,H0,P0,H0
[11] = log10 of HIV-1 infection of TZM-bl cells relative to EF-C, Fig S15 source data, asymmetric std dev errors
[12] = infectivity enhancement relative to EF-C
[13] = infectivity n-fold relative to virus alone
[14] = infectivity class (low / medium / high) of the peptide in the sequence-pattern analysis, Fig. S22-A4, class limits not given
[15] = ThT fluorescence relative to blank (42.1851851851852 a.u.)
[16] = Feb2021, Log10 of infectivity relative to EF-C
[17] = Feb2021, n-fold enhancement relative to EF-C
[18] = Feb2021 run, infectivity n-fold relative to virus alone
[19] = Feb2021 run, log10 of infectivity relative to EF-C
[20] = Feb2021 run, n-fold infectivity relative to EF-C

Substance	Tht category (> 1.5 to blank = +) ([1]; category 1/0)	Tht rel to blank (42.1851851851852) [1, 5]	n-fold to virus (Feb2021) [2, 6]	Log10 of Rel to EFC (Feb2021) [2, 7]	Rel-to EFC (Feb-2021) [2, 8]	Absolute Infectivity / RLU /s (Feb2021) [2, 9] [RLU /s]	infectivity [2, 10]	Log10 Inf. rel. to EF-C [2, 11]	FTIR ß-sheet content/ % ([3]; ATR-FT-IR)	TEM: 1= fibrils, 0= aggregates (micelle), 0.5 = aggregates and fibrils, -1 = nothing obersved, STD prep [4]	Rel-to EFC [2, 12]	n-fold to virus [2, 13]	Tht rel to blank (42.1851851851852) [1, 15]	Log10 of Rel to EFC (Feb2021) [2, 16]	Rel-to EFC (Feb-2021) [2, 17]	n-fold to virus (Feb2021) [2, 18]	Log10 of Rel to EFC (Feb2021) [2, 19]	Rel-to EFC (Feb-2021) [2, 20]	FTIR ß-sheet content/ % [3] [%]	also measured
CRFRFQF [CN10]	1 (ThT. Cat is 1, if Rel. ThT >2)	3.455	14.45	-0.4635	0.3439	7508	medium	-0.4635	39.77%	1										
CRFRVPF [CN8]	0 (ThT-inactive (N-Fold <2))	0.9438	0.837	-1.701	0.01992	376.7	low	-1.701	11.43%	0										
CSISIQI [TM141]	1 (ThT. Cat is 1, if Rel. ThT >2)	15.04	2.35	-1.252	0.05593	3087		-1.252	58.57%	1	0.05593	2.35								infectivity [2, 14]: low
HHHHKIKIKIKIYYYY [TM6]	1 (ThT. Cat is 1, if Rel. ThT >2)				0.6784		medium	-0.1685	0%	0.5	0.6784	28.5	9.935	-0.1685						Tht rel to blank (42.1851851851852) ([1]; ThT fluorescence relative to blank, blank = 42.1851851851852): 9.935; Absolute Infectivity / RLU /s (Feb2021) ([2]; Feb2021, figures match the 1.3 µM column): 20713.33333 RLU /s; Rel-to EFC (Feb-2021) ([2]; Feb2021, infectivity enhancement relative to EF-C): 0.6784; n-fold to virus (Feb2021) ([2]; Feb2021, infectivity relative to virus only): 28.5
KAKAQA [JJA2 / TM153]	0 (ThT-inactive (N-Fold <2))	1.172	0.7586		0.01805	146.7	low	-1.743	40% and 40.34%	0			1.172	-1.743	0.01805	0.7586	-1.743	0.01805	40.34	
KAKAQANMWQ [JG3]	0 (ThT-inactive (N-Fold <2))	0.9886	0.3005		0.007152	193.3	low	-2.146	43% and 42.81%	0.5			0.9886	-2.146	0.007152	0.3005	-2.146	0.007152	42.81	Tht category (> 1.5 to blank = +) ([1]; FigS26): 0 (Tht category (> 1.5 to blank = +))
KFKFQF [JJA6]	0 (ThT-inactive (N-Fold <2))	1.156	2.575		0.06128	686.7	low	-1.213	46%	0.5			1.156	-1.213	0.06128	2.575	-1.213	0.06128	46	
KFKFQFNM [BL6a]	0 (ThT-inactive (N-Fold <2))	1.202	19.81		0.4715	7067	medium	-0.3265	40% and 40.31%	1			1.202	-0.3265	0.4715	19.81	-0.3265	0.4715	40.31	
KFKFQFNMW																				Tht category (> 2 to blank = +) ([1]; Fig S10 panel D): 0 (ThT-inactive (N-Fold <2)); ThT Cat, ([1]; ThT category, 1 if Rel. ThT >2): 0 (ThT-inactive (N-Fold <2)); ThT Cat. ([1]; ThT category, 1 if Rel. ThT >2): 0 (ThT-inactive (N-Fold <2)); ThT Cat. / ThT-Fluorescence (categorical) ([1]; ThT-active if fluorescence at least twice the control): 0 (ThT-inactive (N-Fold <2)); Rel-EFC ([2]; 1.3 µM peptide, infection relative to EF-C (QCKIKQIINMWQ = 1)): 0,45; Log10 Infection Rel EFC ([2]; 1.3 µM peptide, log10 of infection relative to EF-C): -0,35; Log Infectivity ([2]; Fig. S7 panel A (plotted against β-sheet content), Log10 infection relative to EF-C, TZM-bl cells, asymmetric std dev errors): -0.3503; Log10 Infection Rel EF-C ([2]; Log10 of infection rate relative to EF-C, Figure 3A source data): -0.35; Log10 Infection Rel EF-C ([2]; infection rate relative to EF-C, log10, data of Figure 2D): -0.3503; Log10 Infection Rel EF-C ([2]; infection rate relative to EF-C, log10, source data of Figure 2C): -0.3503; Log10 of Rel to EFC (Feb2021) ([2]; Log10 of infection relative to EF-C, all peptides of FigS16): -0.35; Abs. Inf. ([2]; absolute infection signal, HIV-1 on TZM-bl cells, β-galactosidase luminescence): 6690; Log10 Inf. rel. to EF-C ([2]; log10 of HIV-1 infection of TZM-bl cells relative to EF-C (EF-C = 0)): -0.3503; b -sheet / % ([3]; Fig. S7 panel A, β-sheet content by ATR-FT-IR): 38.191%; TEM 2cat ([4]; Fig S10 panel D): 1; Fibril / Fibril Formation ([4]; TEM, 1 mg/mL, uranyl acetate stain, qualitative): 1; Fibril ([4]; TEM, 0 = non-fibrillar): 1; Fibril ([4]; TEM, 0 = non-fibrillar structures): 1; TEM 2cat ([4]; category: fibrils present or non-fibrillar): 1
KFKFQFNMWQ [JG4]	1 (ThT. Cat is 1, if Rel. ThT >2)	2.807	32.14		0.7649	20676.66667	high	-0.1164	43% and 43.15%	1	0.7649	32.1399	2.807	-0.1164	0.7649	32.14	-0.1164	0.7649	43.15	Tht category (> 1.5 to blank = +) ([1]; FigS26): 1 (Tht category (> 1.5 to blank = +)); Tht category (> 1.5 to blank = +) ([1]; category from ThT rel to blank): 1 (ThT. Cat is 1, if Rel. ThT >2); Absolute Infectivity / RLU /s (Feb2021) ([2]; Feb2021 data set, in other rows equals the 1.3 µM column, mean, STD in separate column): 20676.66667 RLU /s; Rel-to EFC (Feb-2021) ([2]; Feb2021 data set, infectivity enhancement relative to EF-C): 0.7649; n-fold to virus (Feb2021) ([2]; Feb2021 data set, infectivity n-fold to virus alone): 32.14; Log10 of Rel to EFC (Feb2021) ([2]; Feb2021 data set, log10 of infectivity relative to EF-C): -0.1164; infectivity [2, 14]: high; TEM: 1= fibrils, 0= aggregates (micelle), 0.5 = aggregates and fibrils, -1 = nothing obersved, STD prep ([4]; TEM): 1
